Test results as given in patent publication US5750696A, “Dioxacycloalkane compound having renin-inhibitory activity” (Japan Tobacco Inc., priority 1992, dated 1998).

Assays:
[1] = target: T1, renin activity in human plasma (Homo sapiens, UniProt P00797); experiment: Inhibitory action on renin activity in human plasma; type: biochemical; conditions: 37° C., 1 hour, angiotensin I by radio immunoassay
T1 construct: Human plasma (200 μl); from tissue; host or cells: human plasma
T1 sequence (P00797 67-406): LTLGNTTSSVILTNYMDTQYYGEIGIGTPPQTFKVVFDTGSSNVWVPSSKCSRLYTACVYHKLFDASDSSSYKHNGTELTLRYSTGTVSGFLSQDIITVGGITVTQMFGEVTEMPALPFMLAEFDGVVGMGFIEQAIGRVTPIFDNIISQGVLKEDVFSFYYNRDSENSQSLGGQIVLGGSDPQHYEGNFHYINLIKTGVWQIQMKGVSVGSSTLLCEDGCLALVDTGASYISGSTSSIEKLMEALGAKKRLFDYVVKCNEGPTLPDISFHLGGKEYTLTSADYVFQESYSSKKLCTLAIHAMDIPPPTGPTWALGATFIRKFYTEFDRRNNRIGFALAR
Procedure: (§1) In the following, the test results of the inhibitory action of the dioxacycloalkane compound of the above-mentioned formula [1] of the present invention, on the renin activity in human plasma and the hypotensive action on nonanesthetized marmosets under salt intake control are shown.
Inhibitory action on renin activity in human plasma
Human plasma (200 μl), a pH adjusting solution (20 μl), PMSF (10 μl), and a solution (10 μl) of the dioxacycloalkane compound of the present invention in dimethyl sulfoxide or dimethyl sulfoxide (10 μl ) as a control were placed in plastic tubes for RIA. Two sets of these were prepared and one set of them was incubated at 37° C. for 1 hour and the other was incubated at 4° C. for 1 hour.
After incubation, the amount of angiotensin I was quantitatively assayed by the radio immunoassay method. The renin activity in plasma was calculated by subtracting the amount of angiotensin I in the reaction mixture incubated at 4° C. from that in the reaction mixture incubated at 37° C. Percent inhibitory activity was calculated from the following formula [formula] The molar concentration necessary for 50% inhibition of activity (IC5 0) was determined from the inhibitory activity value obtained by the above calculating formula. [RENIN RIABEADS KIT (Dinabot Ltd.) was used for the measurement.]

[2] = system: non-anesthetized marmosets; experiment: Hypotensive action on non-anesthetized marmosets under salt intake control; type: in vivo; conditions: 10 mg/kg, po, low salt diet, tail-cuff method, relative to value before administration
From the text: as §1
Hypotensive action on non-anesthetized marmosets under salt intake control
Non-anesthetized marmosets (weighing 310-370 g) raised on a low salt diet (containing 0.02% salt, 1/10 of the normal diet) for a week were orally administered with the compound (10 mg/kg) of Example 1 dissolved in 0.1 M citric acid, at the ratio of 2 ml/kg. The blood pressure was measured with the lapse of time before and after the administration by the tail-cuff method, and the hypotensive action was calculated in percentage relative to the value measured before the administration.

IC50 [1] [nM] | SMILES | other results
21 | CN(C(=O)[C@H](Cc1ccccc1)NC(=O)N1CCCCC1)[C@@H](Cc1c[nH]cn1)C(=O)N[C@@H](CC1CCCCC1)[C@@H](O)C[C@H]1OCOC1(C)C [Example 2, (4R)-4-[(2S,3S)-4-cyclohexyl-2-hydroxy-3-[[Nα-methyl-N α-(N-piperidinocarbonyl-L-phenylalanyl)-L-histidyl]amino]butyl]-5,5-dimethyl-1,3-dioxolane] | 
7 | CC1(C)OCO[C@H]1C[C@H](O)[C@H](CC1CCCCC1)NC(=O)[C@H](Cc1c[nH]cn1)NC(=O)[C@H](Cc1ccccc1)OC(=O)N1CCCCC1 [Example 3, (4S)-4-[(2S,3S)-4-cyclohexyl-2-hydroxy-3-[[Nα-[(2S)-3-phenyl-2-piperidinocarbonyloxypropionyl]-L-histidyl]amino]butyl]-5,5-dimethyl-1,3-dioxolane] | 
1.8 | CC1(C)OCO[C@H]1C[C@H](O)[C@H](CC1CCCCC1)NC(=O)[C@H](Cc1c[nH]cn1)NC(=O)[C@H](Cc1ccccc1)NC(=O)N1CCCCC1 [Example 4, (4S)-4-[(2S,3S)-4-cyclohexyl-2-hydroxy-3-[[N α-(N-piperidino-carbonyl-L-phenylalanyl)-L-histidyl]amino]butyl]-5,5-dimethyl-1,3-dioxolane] | 
14 | CSC[C@H](NC(=O)[C@H](Cc1ccccc1)OC(=O)N1CCN(C)CC1)C(=O)N[C@@H](CC1CCCCC1)[C@@H](O)C[C@@H]1OCOC1(C)C [Example 5, (4S)-4-[(2S,3S)-4-cyclohexyl-2-hydroxy-3-[[S-methyl-N-[(2S)-3-phenyl-2-(4-methylpiperazinyl)carbonyloxypropionyl]-L-cysteinyl]amino]butyl]-5,5-dimethyl-1,3-dioxolane] | 
11 | CN(C(=O)[C@H](Cc1ccccc1)NS(=O)(=O)N1CCCCC1)[C@@H](Cc1c[nH]cn1)C(=O)N[C@@H](CC1CCCCC1)[C@@H](O)C[C@@H]1OCOC1(C)C [Example 6, (4S)-4-[(2S,3S)-4-cyclohexyl-2-hydroxy-3-[[Nα-methyl-N α-(N-piperidinosulfonyl-L-phenylalanyl)-L-histidyl]amino]butyl]-5,5-dimethyl-1,3-dioxolane] | 
3 | CC1CCN(C(=O)N[C@@H](Cc2ccccc2)C(=O)N(C)[C@@H](Cc2c[nH]cn2)C(=O)N[C@@H](CC2CCCCC2)[C@@H](O)C[C@@H]2OCOC2(C)C)CC1 [Example 9, (4S)-4-[(2S,3S)-4-cyclohexyl-2-hydroxy-3-[[Nα-methyl-N α-[N-(4-methylpiperidino)carbonyl-L-phenylalanyl]-L-histidyl]-amino]butyl]-5,5-dimethyl-1,3-dioxolane] | 
7.8 | CCN(CC)C(=O)N[C@@H](Cc1ccccc1)C(=O)N(C)[C@@H](Cc1c[nH]cn1)C(=O)N[C@@H](CC1CCCCC1)[C@@H](O)C[C@@H]1OCOC1(C)C [Example 10, (4S)-4-[(2S,3S)-4-cyclohexyl-2-hydroxy-3-[[Nα-methyl-N α-[N-(diethylamino)carbonyl-L-phenylalanyl]-L-histidyl]amino]butyl]-5,5-dimethyl-1,3-dioxolane] | 
13 | CN(C(=O)[C@H](Cc1ccccc1)NC(=O)N1CCCCC1)[C@@H](Cc1c[nH]cn1)C(=O)N[C@@H](CC1CCCCC1)[C@@H](O)C[C@@H]1OC(C)(C)OC1(C)C [Example 11, (4S)-4-[(2S,3S)-4-cyclohexyl-2-hydroxy-3-[[Nα-methyl-N α-(N-piperidinocarbonyl-L-phenylalanyl)-L-histidyl]amino]butyl]-2,2,5,5-tetramethyl-1,3-dioxolane] | 
4 | CN(C(=O)[C@H](Cc1ccccc1)NC(=O)N1CCCCC1)[C@@H](Cc1c[nH]cn1)C(=O)N[C@@H](CC1CCCCC1)[C@@H](O)C[C@@H]1OC(c2ccccc2)OC1(C)C (stereo partly drawn) [Example 12, (4S)-4-[(2S,3S)-4-cyclohexyl-2-hydroxy-3-[[Nα-methyl-N α-(N-piperidinocarbonyl-L-phenylalanyl)-L-histidyl]amino]butyl]-5,5-dimethyl-2-phenyl-1,3-dioxolane] | 

SMILES | IC50 [1] [nM] | other results
CN(C(=O)[C@H](Cc1ccccc1)NC(=O)N1CCCCC1)[C@@H](Cc1c[nH]cn1)C(=O)N[C@@H](CC1CCCCC1)[C@@H](O)C[C@@H]1OCOC1(C)C [Example 1, (4S)-4-[(2S,3S)-4-cyclohexyl-2-hydroxy-3-[[Nα-methyl-N α-(N-piperidinocarbonyl-L-phenylalanyl)-L-histidyl]amino]butyl]-5,5-dimethyl-1,3-dioxolane] | 0.9 | Hypotensive action (%) 0.5 hr later ([2]; 0.5 hr later): 10%; Hypotensive action (%) 1 hr later ([2]; 1 hr later): 12%; Hypotensive action (%) 3 hrs later ([2]; 3 hrs later): 10%; Hypotensive action (%) 5 hrs later ([2]; 5 hrs later): 10%; Hypotensive action (%) 7 hrs later ([2]; 7 hrs later): 3%
